Reference: BindingDB's records for doi:10.1016/j.ejmech.2018.09.013 (Wuhan Institute of Technology, 2018)

Tests used:
[1] = Inhibition of HIV1 LAI reverse transcriptase infected in human MT4 cells assessed as protection against virus-induced cytopathic effect by MTT assay
[2] = Inhibition of HIV1 reverse transcriptase L100I mutant infected in human MT4 cells assessed as protection against virus-induced cytopathic effect by MTT assay
[3] = Inhibition of HIV1 reverse transcriptase Y188L mutant infected in human MT4 cells assessed as protection against virus-induced cytopathic effect by MTT assay
[4] = Inhibition of HIV1 reverse transcriptase K103N mutant infected in human MT4 cells assessed as protection against virus-induced cytopathic effect by MTT assay
[5] = Inhibition of HIV1 reverse transcriptase Y181C mutant infected in human MT4 cells assessed as protection against virus-induced cytopathic effect by MTT assay
[6] = Inhibition of HIV1 reverse transcriptase L100I/K103N double mutant infected in human MT4 cells assessed as protection against virus-induced cytopathic effect by MTT assay
[7] = Inhibition of HIV1 reverse transcriptase K103N/Y188C double mutant infected in human MT4 cells assessed as protection against virus-induced cytopathic effect by MTT assay
[8] = Inhibition of HIV1 3B reverse transcriptase infected in human MT2 cells assessed as protection against virus-induced cytopathic effect by MTT assay
[9] = Inhibition of HIV1 reverse transcriptase Y181C mutant infected in human MT2 cells assessed as protection against virus-induced cytopathic effect by MTT assay
[10] = Inhibition of HIV1 reverse transcriptase K103N/Y181C double mutant infected in human MT2 cells assessed as protection against virus-induced cytopathic effect by MTT assay
[11] = molecular target: recombinant HIV1 reverse transcriptase Y188L mutant; experiment: Inhibition of recombinant HIV1 reverse transcriptase Y188L mutant
[12] = Inhibition of wild-type HIV1 3B reverse transcriptase infected in human MT4 cells harboring GFP by scanning microscopic analysis
[13] = Inhibition of HIV1 reverse transcriptase Y181C mutant infected in human MT4 cells harboring GFP by scanning microscopic analysis
[14] = Inhibition of HIV1 reverse transcriptase K103N mutant infected in human MT4 cells harboring GFP by scanning microscopic analysis
[15] = Inhibition of HIV1 reverse transcriptase K103N/Y181C double mutant infected in human MT4 cells harboring GFP by scanning microscopic analysis
Reverse transcriptase = Reverse transcriptase (Human immunodeficiency virus 1, UniProt Q9WKE8); experiment: Inhibition of CXCR4 tropic HIV1 3B reverse transcriptase infected in human TZM-bl cells
[16] = Inhibition of CCR5 tropic HIV1 VB59 reverse transcriptase infected in human TZM-bl cells
[17] = Inhibition of CCR5 tropic HIV1 ADA5 reverse transcriptase infected in human TZM-bl cells
[18] = Inhibition of CXCR4 tropic HIV1 UG070 reverse transcriptase infected in human TZM-bl cells
[19] = Inhibition of wild-type HIV1 3B reverse transcriptase infected in human MT4 cells assessed as protection against virus-induced cytopathic effect measured after 4 days by MTT assay
[20] = Inhibition of HIV1 reverse transcriptase K103N/Y188C double mutant infected in human MT4 cells assessed as protection against virus-induced cytopathic effect measured after 4 days by MTT assay
[21] = Inhibition of wild-type HIV1 3B reverse transcriptase infected in human MT4 cells assessed as protection against virus-induced cytopathic effect measured 5 days post infection by MTT assay
[22] = Inhibition of HIV1 reverse transcriptase K103N mutant infected in human MT4 cells assessed as protection against virus-induced cytopathic effect measured 5 days post infection by MTT assay
[23] = Inhibition of HIV1 reverse transcriptase E138K mutant infected in human MT4 cells assessed as protection against virus-induced cytopathic effect measured 5 days post infection by MTT assay
[24] = Inhibition of HIV1 reverse transcriptase K103N/Y188C double mutant infected in human MT4 cells assessed as protection against virus-induced cytopathic effect measured 5 days post infection by MTT assay
[25] = Inhibition of wild-type HIV1 3B reverse transcriptase infected in human MT4 cells assessed as protection against virus-induced cytopathic effect
[26] = Inhibition of HIV1 RES056 reverse transcriptase K103N/Y181C double mutant infected in human MT4 cells assessed as protection against virus-induced cytopathic effect

Compound	IC50 [1] [nM]	IC50 [2] [nM]	IC50 [3] [nM]	IC50 [4] [nM]	IC50 [5] [nM]	IC50 [6] [nM]	IC50 [7] [nM]	further results
N#Cc1ccc(Nc2cc(N)nc(Cc3c(Cl)cccc3Cl)n2)cc1	452	> 100000	> 100000	> 100000	> 100000	–	–	–
Cc1cc(Br)cc(C)c1Sc1ccnc(Nc2ccc(C#N)cc2)n1	5.7	174	44	39	68	3890	354	–
Cc1cc(C#N)cc(C)c1Nc1nc(Nc2ccc(C#N)cc2)ncc1C#N	0.5	91	8.6	2.6	76	312	181	–
Cc1cc(C#N)cc(C)c1Oc1nc(Nc2ccc(C#N)cc2)ncc1N	1	16	5.7	1.3	9.3	282	14	–
N#C/C=C/c1cc(F)c(Nc2nc(NCCCN3CCOCC3)nc(Nc3ccc(C#N)cc3)n2)c(F)c1	–	–	–	–	–	–	–	EC50 [8]: 5.7 nM; EC50 [9]: 75 nM; EC50 [10]: 16 nM
N#Cc1ccc(Nc2nc(N)cc(Cc3c(Cl)cccc3Cl)n2)cc1	1	299	71	12	175	–	–	–
C=Cc1cnc(Nc2ccc(C#N)cc2)nc1Nc1c(C)cc(C)cc1C	2.5	35	29	5.8	36	> 100000	106	–
CC(=O)Nc1cnc(Nc2ccc(C#N)cc2)nc1Oc1c(C)cc(C#N)cc1C	–	–	–	3.3	–	205	30	–
Cc1cc(C#N)cc(C)c1Nc1nc(Nc2ccc(C#N)cc2)ncc1Br	0.4	7	3.3	0.4	9.6	37	32	–
N#Cc1ccc(Nc2nc(N)nc(Cc3c(Cl)cccc3Cl)n2)cc1	6	398	316	40	200	–	–	–
Cc1cc(C)c(Nc2ccnc(Nc3ccc(C(N)=O)cc3)n2)c(C)c1	–	–	–	–	–	–	–	IC50 [11]: < 10000 nM
C#Cc1cnc(Nc2ccc(C#N)cc2)nc1Nc1c(C)cc(C)cc1C	–	–	–	6.2	–	71	42	–
Cc1cc(C#N)cc(C)c1Nc1nc(Nc2ccc(C#N)cc2)ncc1Cl	1.2	5.2	4.7	0.9	14	144	69	–
N#C/C=C/c1ccc(Nc2nc(Nc3ccc(C#N)cc3)ncc2C(=O)NCCCN2CCCC2)cc1	–	–	–	–	–	–	–	EC50 [12]: 0.794 nM; EC50 [13]: 20 nM; EC50 [14]: 1 nM; EC50 [15]: 16 nM
N#C/C=C/c1ccc(Nc2cc(NCCc3ccc(S(N)(=O)=O)cc3)nc(Nc3ccc(C#N)cc3)n2)cc1	–	–	–	–	–	–	–	EC50 [12]: 16 nM; EC50 [13]: 98 nM; EC50 [14]: 389 nM; EC50 [15]: 91 nM
Cc1cc(C)c(Nc2cc(OCCCN3CCOCC3)nc(Nc3ccc(C#N)cc3)n2)c(C)c1	–	–	–	–	–	–	–	EC50 [9]: 480 nM; EC50 [10]: 38 nM
Cc1cc(C)c(Nc2nc(N)nc(Nc3ccc(C#N)nc3)n2)c(C)c1	–	–	–	–	–	–	–	IC50 (Reverse transcriptase): 0.131 nM; IC50 [16]: 0.183 nM; IC50 [17]: 0.183 nM; IC50 [18]: 0.784 nM

Compound	IC50 [1] [nM]	IC50 [2] [nM]	IC50 [3] [nM]	IC50 [4] [nM]	IC50 [5] [nM]	IC50 [6] [nM]	IC50 [7] [nM]	further results
N#Cc1ccc(Nc2nccc(Oc3ccc4ccccc4c3Br)n2)cc1	–	–	–	–	–	–	–	EC50 [19]: 2.4 nM; EC50 [20]: 6570 nM
N#Cc1ccc(Nc2nccc(Oc3ccc4cc(C#N)ccc4c3Br)n2)cc1	–	–	–	–	–	–	–	EC50 [19]: 2 nM; EC50 [20]: 240 nM
Cc1cnc(Nc2ccc(C#N)cc2)nc1Nc1c(C)cc(C#N)cc1C	0.8	16	16	1.7	12	> 10000	162	–
Cc1cc(C#N)cc(C)c1Oc1ccnc(Nc2ccc(C#N)cc2)n1	1.1	73	19	2.7	37	798	94	–
N#Cc1ccc(Nc2cc(Cc3c(Cl)cccc3Cl)nc(N)n2)cc1	10	96600	> 100000	33300	> 100000	–	–	–
Cc1cc(C#N)cc(C)c1Nc1ccnc(Nc2ccc(C#N)cc2)n1	0.4	34	7.8	1.9	7.1	1090	37	–
CN(C)CCNC(=O)c1cnc(Nc2ccc(C#N)cc2)nc1Nc1ccc(/C=C/C#N)cc1	–	–	–	–	–	–	–	EC50 [12]: 0.794 nM; EC50 [13]: 16 nM; EC50 [14]: 0.631 nM; EC50 [15]: 20 nM
Cc1cc(C)c(Nc2nc(Cl)nc(Nc3ccc(C#N)nc3)n2)c(C)c1	–	–	–	–	–	–	–	IC50 (Reverse transcriptase): 0.124 nM; IC50 [16]: 0.497 nM; IC50 [17]: 0.273 nM; IC50 [18]: 1.12 nM
Cc1cc(C#Cc2cccnc2)cc(C)c1Oc1ccnc(Nc2ccc(C#N)cc2)n1	–	–	–	–	–	–	–	EC50 [21]: 3 nM; EC50 [22]: 10 nM; EC50 [23]: 22 nM; EC50 [24]: 935 nM
Cc1cc(C#N)cc(C)c1Oc1nc(Nc2ccc(C#N)cc2)ncc1[N+](=O)[O-]	18	121	782	10	304	> 10000	194	–
N#C/C=C/c1ccc(Nc2cc(NCCCN3CCOCC3)nc(Nc3ccc(C#N)cc3)n2)cc1	–	–	–	–	–	–	–	EC50 [12]: 20 nM; EC50 [13]: 87 nM; EC50 [14]: 219 nM; EC50 [15]: 98 nM
Cc1cc(/C=C/C#N)cc(C)c1Nc1nc(Nc2ccc(C#N)cc2)nc(OCCCN2CCOCC2)n1	–	–	–	–	–	–	–	EC50 [9]: 12 nM; EC50 [10]: 1.3 nM
CCN(c1nc(Nc2ccc(C#N)cc2)nc(Oc2c(C)cc(C)cc2C)n1)N1CCOCC1	–	–	–	–	–	–	–	EC50 [21]: 7.8 nM; EC50 [24]: 650 nM
Cc1cc(C(C#N)c2ccccc2F)nc(Nc2ccc(C#N)cc2)n1 (configuration not stated)	–	–	–	–	–	–	–	EC50 [25]: 1.8 nM; EC50 [26]: > 217 nM
Cc1cc(C)c(Nc2nc(Nc3ccc(C#N)cc3)ncc2-c2ccccc2)c(C)c1	24	–	–	–	–	–	–	–
Cc1cc(C#CCCO)cc(C)c1Oc1ccnc(Nc2ccc(C#N)cc2)n1	–	–	–	–	–	–	–	EC50 [21]: 3 nM
